Results taken from ChEMBL document CHEMBL4706484, “Apigenin-rivastigmine hybrids as multi-target-directed liagnds for the treatment of Alzheimer's disease” (Eur J Med Chem, 2020).
The source made the active and inactive calls. The rule behind the calls is not given here.

Legend:
[1] = Antioxidant activity of compound assessed as trolox equivalent antioxidant capacity by ORAC-FL assay; type: functional
Acetylcholinesterase [2] = molecular target: T1, Acetylcholinesterase (Homo sapiens, UniProt P22303); assay: Inhibition of human erythrocytes AChE using acetylthiocholine iodide as substrate measured after 15 mins by Ellman's method; type: tissue-based, Erythrocyte
T1 sequence (P22303 whole entry): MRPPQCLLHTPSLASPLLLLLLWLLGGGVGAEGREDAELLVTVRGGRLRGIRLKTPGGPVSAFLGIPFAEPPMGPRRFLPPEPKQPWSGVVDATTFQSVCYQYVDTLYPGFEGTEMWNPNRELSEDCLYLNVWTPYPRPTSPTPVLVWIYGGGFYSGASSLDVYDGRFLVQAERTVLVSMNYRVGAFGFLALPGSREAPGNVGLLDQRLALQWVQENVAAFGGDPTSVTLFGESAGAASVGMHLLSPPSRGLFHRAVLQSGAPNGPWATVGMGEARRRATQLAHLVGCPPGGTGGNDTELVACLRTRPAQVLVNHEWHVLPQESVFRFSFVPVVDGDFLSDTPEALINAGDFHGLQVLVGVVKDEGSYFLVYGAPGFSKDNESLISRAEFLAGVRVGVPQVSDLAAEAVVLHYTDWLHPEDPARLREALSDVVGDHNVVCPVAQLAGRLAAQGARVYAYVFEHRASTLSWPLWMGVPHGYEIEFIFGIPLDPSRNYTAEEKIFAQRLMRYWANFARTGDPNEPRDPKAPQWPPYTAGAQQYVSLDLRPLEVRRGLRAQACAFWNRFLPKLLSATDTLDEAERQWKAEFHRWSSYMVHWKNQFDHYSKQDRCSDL

Cholinesterase [3] = molecular target: T2, Cholinesterase (Homo sapiens, UniProt P06276); assay: Pseudo-irreversible inhibition of human serum BChE assessed as enzyme recovery activity at IC50 using diluted compound relative to control; type: cell-free; parameters: scale not given: the % may be the effect or the level left
T2 sequence (P06276 whole entry): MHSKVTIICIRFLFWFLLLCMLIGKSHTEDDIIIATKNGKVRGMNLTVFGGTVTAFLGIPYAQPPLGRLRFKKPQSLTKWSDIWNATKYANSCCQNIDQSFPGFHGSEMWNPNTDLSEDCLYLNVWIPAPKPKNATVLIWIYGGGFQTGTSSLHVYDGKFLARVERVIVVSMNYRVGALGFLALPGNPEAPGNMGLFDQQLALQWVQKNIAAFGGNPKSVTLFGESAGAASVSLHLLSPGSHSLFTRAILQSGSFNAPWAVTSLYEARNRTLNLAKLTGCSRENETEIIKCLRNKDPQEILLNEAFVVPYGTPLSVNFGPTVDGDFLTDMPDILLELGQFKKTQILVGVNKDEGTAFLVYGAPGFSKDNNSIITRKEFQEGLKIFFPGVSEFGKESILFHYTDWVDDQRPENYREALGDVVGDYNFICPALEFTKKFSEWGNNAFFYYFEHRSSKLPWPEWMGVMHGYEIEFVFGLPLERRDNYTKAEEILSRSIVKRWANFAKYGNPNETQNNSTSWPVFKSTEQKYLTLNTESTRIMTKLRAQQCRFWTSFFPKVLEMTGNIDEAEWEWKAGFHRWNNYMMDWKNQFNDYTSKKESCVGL

Cholinesterase [4] = molecular target: T2, Cholinesterase; assay: Pseudo-irreversible inhibition of human serum BChE assessed as enzyme recovery activity at 0.1 times IC50 using diluted compound relative to control; type: cell-free; parameters: scale not given: the % may be the effect or the level left
Cholinesterase [5] = molecular target: T2, Cholinesterase; assay: Pseudo-irreversible inhibition of human serum BChE assessed as enzyme recovery activity at IC50 using undiluted compound relative to control; type: cell-free; parameters: scale not given: the % may be the effect or the level left
Acetylcholinesterase [6] = molecular target: T1, Acetylcholinesterase; assay: Pseudo-irreversible inhibition of human erythrocytes AChE assessed as enzyme recovery activity at 0.1 times IC50 measured at 120 mins using diluted compound relative to control; type: tissue-based; parameters: scale not given: the % may be the effect or the level left; conditions: Erythrocyte
[7] = molecular target: Amyloid-beta precursor protein (Homo sapiens) (UniProt P05067); assay: Inhibition of self-induced amyloid beta (1 to 42) (unknown origin) aggregation at 25 uM by ThT fluorescence assay relative to control
Chain of Amyloid-beta precursor protein (Homo sapiens) (P05067 whole entry, the tested form may be a part): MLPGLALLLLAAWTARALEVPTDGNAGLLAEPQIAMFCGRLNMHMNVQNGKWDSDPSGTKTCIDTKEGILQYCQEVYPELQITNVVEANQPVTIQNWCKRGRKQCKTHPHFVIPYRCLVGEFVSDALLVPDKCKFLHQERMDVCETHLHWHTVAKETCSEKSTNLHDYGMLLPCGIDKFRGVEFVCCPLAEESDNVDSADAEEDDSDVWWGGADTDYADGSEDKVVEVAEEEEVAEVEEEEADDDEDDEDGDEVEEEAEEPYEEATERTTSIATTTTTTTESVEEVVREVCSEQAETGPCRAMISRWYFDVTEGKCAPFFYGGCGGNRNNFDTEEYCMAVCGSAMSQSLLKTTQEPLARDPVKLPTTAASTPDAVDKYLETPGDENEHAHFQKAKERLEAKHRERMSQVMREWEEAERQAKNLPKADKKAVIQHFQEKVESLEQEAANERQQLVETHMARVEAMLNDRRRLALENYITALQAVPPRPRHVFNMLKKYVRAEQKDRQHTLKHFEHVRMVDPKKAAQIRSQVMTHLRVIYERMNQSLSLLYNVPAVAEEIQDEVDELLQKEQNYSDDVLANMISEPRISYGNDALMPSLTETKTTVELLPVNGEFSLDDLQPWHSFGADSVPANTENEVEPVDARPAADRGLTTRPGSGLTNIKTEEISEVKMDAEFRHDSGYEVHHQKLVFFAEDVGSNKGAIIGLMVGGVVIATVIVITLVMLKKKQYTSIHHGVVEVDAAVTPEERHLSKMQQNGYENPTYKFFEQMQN

[8] = Inhibition of copper-induced amyloid beta (1 to 42) (unknown origin) aggregation at 25 uM by ThT fluorescence assay relative to control
[9] = molecular target: Amyloid-beta precursor protein (Homo sapiens) (UniProt P05067); assay: Disaggregation of self-induced amyloid beta (1 to 42) (unknown origin) preformed fibrils at 25 uM measured after 48 hrs by TEM analysis
SH-SY5Y = assay: Neuroprotective activity against amyloid beta (1 to 42 residues)-induced cell injury in human SH-SY5Y cells assessed as cell viability at 5 uM preincubated for 2 hrs followed by H2O2 addition and measured after 24 hrs by MTT assay (reference value: 52.3 %); type: functional; conditions: time 26 hrs, read-out: Activity
[10] = Metal chelating activity assessed as Cu2+-compound complex formation by measuring absorption wavelength at 37.5 uM in presence of 37.5 uM CuCl2 by UV-Vis spectroscopic analysis
[11] = Metal chelating activity assessed as compound-Cu2+ complex stoichiometry ratio of 1:1 at 37.5 uM in presence of CuCl2 by UV-visible spectrophotometric analysis
[12] = Inhibition of copper-induced amyloid beta (1 to 42) (unknown origin) aggregation measured after 24 hrs by TEM analysis
[13] = Cytotoxicity against human L02 cells assessed as cell viability at 50 uM measured after 72 hrs by MTT assay relative to control; type: cell-based; conditions: read-out: Activity
[14] = Permeability of the compound in PBS/EtOH (70:30) at 100 ug/ml by PAMPA-BBB assay; type: ADME; conditions: dose 100 µg/ml, read-out: permeability
[15] = Acute toxicity in 2 dpf zebrafish assessed as maximum non-lethal concentration measured after 3 days; parameters: species or system Danio rerio; conditions: in vivo, time 3 day
[16] = Acute toxicity in 2 dpf zebrafish assessed as death at 1.25 to 20 ug/ml measured after 3 days; parameters: species or system Danio rerio; conditions: in vivo, 72 h, dose 1.25-20 µg/ml, time 3 day
[17] = Toxicity in 2 dpf zebrafish at 1.39 ug/ml measured after 3 days; parameters: species or system Danio rerio; conditions: in vivo, 72 h, dose 1.39 µg/ml, time 3 day
[18] = Acute toxicity in 2 dpf zebrafish assessed as yolk sac absorption delay at 4.17 ug/ml measured after 3 days relative to control; parameters: species or system Danio rerio; conditions: in vivo, 72 h, at 4.17 µg/mL, time 3 day
[19] = Acute toxicity in 2 dpf zebrafish assessed as bradycardia at 1.39 to 12.5 ug/ml measured after 3 days; parameters: species or system Danio rerio; conditions: in vivo, 72 h, dose 1.39-12.5 µg/ml, time 3 day
[20] = Acute toxicity in 2 dpf zebrafish assessed as small or misshapen brain at 1.39 to 12.5 ug/ml measured after 3 days; type: tissue-based, Danio rerio; conditions: in vivo, 72 h, dose 1.39-12.5 µg/ml, time 3 day
[21] = Acute toxicity in 2 dpf zebrafish assessed as dark brown liver at 1.39 to 12.5 ug/ml measured after 3 days; parameters: species or system Danio rerio; conditions: in vivo, 72 h, dose 1.39-12.5 µg/ml, time 3 day
[22] = Acute toxicity in 2 dpf zebrafish assessed as abnormal intestine at 1.39 to 12.5 ug/ml measured after 3 days; type: tissue-based, Danio rerio; conditions: in vivo, 72 h, dose 1.39-12.5 µg/ml, time 3 day
[23] = Acute toxicity in 2 dpf zebrafish assessed as abnormal tail at 1.39 to 12.5 ug/ml measured after 3 days; parameters: species or system Danio rerio; conditions: in vivo, 72 h, dose 1.39-12.5 µg/ml, time 3 day
[24] = Acute toxicity in 2 dpf zebrafish assessed as abnormal notochord at 1.39 to 12.5 ug/ml measured after 3 days; parameters: species or system Danio rerio; conditions: in vivo, 72 h, dose 1.39-12.5 µg/ml, time 3 day
[25] = Acute toxicity in 2 dpf zebrafish assessed as abnormal pigmentation at 1.39 to 12.5 ug/ml measured after 3 days; parameters: species or system Danio rerio; conditions: in vivo, 72 h, dose 1.39-12.5 µg/ml, time 3 day
[26] = Acute toxicity in 2 dpf zebrafish assessed as body shape at 1.39 to 12.5 ug/ml measured after 3 days; parameters: species or system Danio rerio; conditions: in vivo, 72 h, dose 1.39-12.5 µg/ml, time 3 day
[27] = Acute toxicity in 2 dpf zebrafish assessed as death at 1.39 to 12.5 ug/ml measured after 3 days; parameters: species or system Danio rerio; conditions: in vivo, 72 h, dose 1.39-12.5 µg/ml, time 3 day
Danio rerio [28] = species: Danio rerio; assay: Antialzheimer activity against 3 dpf zebrafish model of AlCl3-induced AD assessed as increase in motility distance; type: functional, organism-based
Danio rerio [29] = species: Danio rerio; assay: Antialzheimer activity against 3 dpf zebrafish model of AlCl3-induced AD assessed as efficacy on motility distance at 12.5 ug/ml relative to control; type: functional; conditions: dose 12.5 µg/ml
Danio rerio [30] = species: Danio rerio; assay: Antialzheimer activity against 3 dpf zebrafish model of AlCl3-induced AD assessed as motility by measuring efficacy on speed change at 1.4 ug/ml relative to control; type: functional; conditions: dose 1.4 µg/ml
Danio rerio [31] = species: Danio rerio; assay: Protection against amyloid beta (1 to 40 residues)-induced vascular injury in transgenic zebrafish assessed as vascular injury rate at 4.2 ug/ml (reference value: 73.3 %); type: functional; conditions: dose 4.2 µg/ml
Danio rerio [32] = species: Danio rerio; assay: Protection against amyloid beta (1 to 40 residues)-induced vascular injury in transgenic zebrafish assessed as efficacy on motility at 1.4 ug/ml relative to control; type: functional; conditions: dose 1.4 µg/ml
Danio rerio [33] = species: Danio rerio; assay: Protection against amyloid beta (1 to 40 residues)-induced vascular injury in transgenic zebrafish assessed as efficacy on motility at 12.5 ug/ml relative to control; type: functional; conditions: dose 12.5 µg/ml
[34] = Acute toxicity in Kunming mouse assessed as dispirited at 2000 mg/kg; type: organism-based; conditions: in vivo
Mus musculus [35] = assay: Cognitive enhancing effect in scopolamine-induced Kunming mouse model of memory impairment assessed as effect on total arm entries at 5 to 20 mg/kg by Y-maze test; type: functional, organism-based; conditions: dose 5-20 mg/kg
Mus musculus [36] = assay: Reversal of scopolamine-induced Kunming mouse model of memory impairment assessed as spontaneous alteration at 5 mg/kg by Y-maze test; type: functional, organism-based
Mus musculus [37] = assay: Antialzheimer activity in scopolamine-induced Kunming mouse model of memory impairment assessed as Q30 bases ratio (raw data) in brain hippocampus at 10 mg/kg by illumina sequencing method (reference value: 93.53 %); type: functional
Mus musculus [38] = assay: Antialzheimer activity in scopolamine-induced Kunming mouse model of memory impairment assessed as Q30 bases ratio (QC data) in brain hippocampus at 10 mg/kg by illumina sequencing method (reference value: 96.67 %); type: functional
Mus musculus [39] = assay: Antialzheimer activity in scopolamine-induced Kunming mouse model of memory impairment assessed as uniquely mapped in brain hippocampus at 10 mg/kg by illumina sequencing method (reference value: 94.54 %); type: functional

Q: For `CCN(C)C(=O)Oc1ccc(-c2cc(=O)c3c(O)cc(OC(=O)N(C)CC)cc3o2)cc1`, which Activity [1] is on record?
A: 1.3 equiv

Q: And the IC50 (Acetylcholinesterase [2])?
A: 6.8 µM

Q: And the Activity (Cholinesterase [3])?
A: 54.1%

Q: What about the Activity (Cholinesterase [4]) of the same compound?
A: 44.8%

Q: What about the Activity (Cholinesterase [5]) of the same compound?
A: 50.6%

Q: And the Activity (Acetylcholinesterase [6])?
A: 83.6%

Q: And the inhibition [7]?
A: 77.9%

Q: And the inhibition [8]?
A: 78.9%

Q: And the Activity [9]?
A: Active

Q: And the viability at 5 µM (SH-SY5Y)?
A: 63.9%

Q: What about the Activity [10] of the same compound?
A: 398 nm

Q: And the Activity [11]?
A: Active

Q: What about the inhibition [12] of the same compound?
A: Active

Q: And the viability at 72 h, 50 µM [13]?
A: 59.7%

Q: What about the Papp at 100 ug/ml [14] of the same compound?
A: 15.5 ×10⁻⁶ cm/s

Q: What about the MNTC at 72 h [15] of the same compound?
A: 12.5 µg/mL

Q: And the Activity [16]?
A: Non-Toxic

Q: What about the Activity [17] of the same compound?
A: Non-Toxic

Q: What about the Activity [18] of the same compound?
A: 33.3%

Q: What about the Activity [19] of the same compound?
A: Non-Toxic

Q: And the Activity [20]?
A: Non-Toxic

Q: What about the Activity [21] of the same compound?
A: Non-Toxic

Q: And the Activity [22]?
A: Non-Toxic

Q: And the Activity [23]?
A: Non-Toxic

Q: And the Activity [24]?
A: Non-Toxic

Q: What about the Activity [25] of the same compound?
A: Non-Toxic

Q: What about the Activity [26] of the same compound?
A: Non-Toxic

Q: And the Activity [27]?
A: Non-Toxic

Q: What about the Activity (Danio rerio [28]) of the same compound?
A: Dose-dependent effect

Q: What about the Efficacy (Danio rerio [29]) of the same compound?
A: 73%

Q: What about the Efficacy (Danio rerio [30]) of the same compound?
A: 58%

Q: And the Activity (Danio rerio [31])?
A: 53%

Q: What about the Efficacy (Danio rerio [32]) of the same compound?
A: 18%

Q: What about the Efficacy (Danio rerio [33]) of the same compound?
A: 64%

Q: What about the Activity [34] of the same compound?
A: Toxic

Q: What about the Activity (Mus musculus [35]) of the same compound?
A: inactive

Q: What about the Activity (Mus musculus [36]) of the same compound?
A: inactive

Q: What about the Activity (Mus musculus [37]) of the same compound?
A: 92.76%

Q: And the Activity (Mus musculus [38])?
A: 96.43%

Q: And the Activity (Mus musculus [39])?
A: 93.76%
